This is an account of results in PubChem BioAssay (NCI).

Test in all cases: DTP human tumour cell line panel, 48 h
For experiment [1], the system named is OVCAR-3 ovarian.
The test system of experiment [2] is BT-549 breast.
In experiment [3] the test system is OVCAR-5 ovarian.
The subject of experiment [4] is SK-MEL-28 melanoma.
The subject of experiment [5] is LOX IMVI melanoma.
The test system of experiment [6] is EKVX NSCLC.
Experiment [7] deals with UACC-62 melanoma.
Experiment [8] deals with NCI/ADR-RES ovarian.
Experiment [9] deals with SR leukemia.
Experiment [10] has as its system A498 renal.

Molecules are shown by their SMILES.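 Cells were grown in 96-well plates and exposed to each compound for 48 hours at five concentrations; endpoints were interpolated linearly between bracketing concentrations, or set to the highest concentration if not reached. TGI: concentration producing complete growth inhibition.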

The term TGI denotes the concentration giving total growth inhibition. Higher therefore signals less potent growth arrest. `Fc1cc(-c2cc(-c3ccc4c(c3)OCO4)n[nH]2)c(Cl)cc1Cl`: the TGI in experiment [1] was 5.33 µM; in [2], 20.7 µM; in experiment [3], 13.7 µM; in experiment [4], 16.9 µM; in [5], 8.49 µM; in [6] it was 5.17 µM. Moreover, the TGI in [7] is 3.8 µM; in experiment [8], 12.4 µM; in experiment [9] it was above 50.1 µM.
With `CC(C)(C)OC(=O)NCC(=O)N1CCN(C(=O)CNC(=O)OC(C)(C)C)CC1`, the TGI in experiment [1], in experiment [2], in [3], in experiment [4], in experiment [5] and in [6] was above 100 µM in each case. Also, the TGI in experiment [7], in [10], in experiment [8] and in experiment [9] was above 100 µM throughout.
In the case of `C=C1C(=O)OC2CC3(C)OC3CC/C(C)=C/C(OC(C)=O)C12` (stereo not given), the total growth inhibition concentration (TGI) in experiment [1] was 34.7 µM; in [2], 22.2 µM; in experiment [3], 23 µM; in experiment [4], 16.8 µM; in experiment [5], 12.8 µM; in [6] it was 32.7 µM. Moreover, the total growth inhibition concentration (TGI) in experiment [7] stood at 22.9 µM; in experiment [10], 29.9 µM; in [8], 30.1 µM.
Regarding `[N-]=[N+]=Nc1c([N+](=O)[O-])c(=O)n2c3c(cccc13)CCC2`, the TGI in [1] is 32.5 µM; in [2] it was 32.7 µM; in experiment [3], 30.2 µM; in [4], 16.3 µM; in [5], 28.9 µM; in [6] it was 41.8 µM. For the same molecule, the TGI in experiment [7] was determined as 29.9 µM; in experiment [10], 50.4 µM; in [8], 45.5 µM; in experiment [9], 5.9 µM.
In the case of `CCN1CCC(O)(/C=C/c2ccc(OC)cc2)C(C(=O)/C=C/c2ccc(OC)cc2)C1` (stereo not given), the total growth inhibition concentration (TGI) in experiment [1] came to 27.6 µM; in experiment [2], 28.9 µM; in [3], 28.8 µM; in [4], 24.4 µM; in experiment [5], 8.82 µM; in experiment [6], 26.4 µM. Besides, the total growth inhibition concentration (TGI) turned out to be 26.1 µM in experiment [7], 27.2 µM in experiment [10], 21.9 µM in [8] and 26.4 µM in [9].
Turning to `C[N+](C)(CCNC(=O)c1cccc2cc3ccccc3nc12)Cc1ccc([N+](=O)[O-])s1`, the concentration for total growth inhibition (TGI) in [1], in [2], in experiment [3], in experiment [4], in experiment [5] and in [6] was above 25 µM each time. Further, the TGI in experiment [7], in experiment [10] and in experiment [8] was above 25 µM throughout.
Regarding `[N-]=[N+]=C(C(=O)N1CCCC1=O)S(=O)(=O)c1ccccc1`, the concentration for total growth inhibition (TGI) in [1], in experiment [2], in experiment [4], in experiment [5], in experiment [6] and in experiment [7] was above 100 µM in each case. The total growth inhibition concentration (TGI) in experiment [8] and in experiment [9] was above 100 µM each time.
For the molecule `Oc1ccc(Cl)cc1C1=NC(/N=C\c2ccccc2)=NC(c2ccccc2)C1` (stereo not given), the concentration for total growth inhibition (TGI) in [1], in [2], in experiment [3], in experiment [4], in experiment [6] and in experiment [7] was above 100 µM each time. Further, the TGI in [10] was above 100 µM; in experiment [8], above 100 µM; in experiment [9], 45 µM.
With `COC(=O)c1c(O)ccc2c1c1c(n2Cc2ccccc2)C(=O)c2ccccc2C1`, the TGI was above 100 µM in experiment [1]; above 100 µM in experiment [2]; above 100 µM in [4]; 69.5 µM in experiment [5]; above 100 µM in experiment [7]; above 100 µM in experiment [10]. Also, the TGI was determined as 89.9 µM in experiment [8] and 37.5 µM in [9].
Consider `C=C1CN(C2=NCCO2)C1`, for which the concentration for total growth inhibition (TGI) in [1], in experiment [2], in experiment [3], in experiment [4], in experiment [5] and in [6] was above 100 µM each time. Moreover, the TGI in experiment [7], in experiment [8] and in [9] was above 100 µM each time.
As for `C=C(C)CNC(=S)N(N)c1ccc2ccccc2c1`, the concentration for total growth inhibition (TGI) was above 100 µM in experiment [1]; above 100 µM in [2]; 77.4 µM in [3]; above 100 µM in experiment [4]; above 100 µM in [5]; 88.9 µM in experiment [6]. Further, the concentration for total growth inhibition (TGI) in [7] is 76.8 µM; in experiment [8], above 100 µM; in experiment [9], above 100 µM.
For the molecule `O=C(O)C(=O)/C=C(\O)c1ccc(Br)cc1`, the TGI is above 100 µM in [1]; above 100 µM in experiment [2]; above 100 µM in [3]; above 100 µM in [4]; above 100 µM in [5]; 82.1 µM in [6]. Further, the concentration for total growth inhibition (TGI) in experiment [7], in experiment [10] and in experiment [8] was above 100 µM each time.
Regarding `O=C1CC2CCC(C1)S2=O` (stereo not given), the total growth inhibition concentration (TGI) in experiment [1], in experiment [2], in experiment [4], in experiment [5], in experiment [6] and in [7] was above 100 µM throughout. Besides, the TGI in [8] and in experiment [9] was above 100 µM throughout.
On to `C=CCn1c(-c2ccc([N+](=O)[O-])cc2)csc1=N`, for which the TGI in [1] is above 100 µM; in experiment [2] it was above 100 µM; in experiment [3], above 100 µM; in experiment [4] it was above 100 µM; in experiment [5], 70.5 µM; in [6], above 100 µM. In addition, the total growth inhibition concentration (TGI) in experiment [7], in experiment [10] and in [8] was above 100 µM in each case.
In the case of `CN1CCN(C2=CC(=O)c3c(O)ccc(O)c3C2=O)CC1`, the TGI is 0.611 µM in experiment [1]; 3.14 µM in experiment [2]; 3 µM in [4]; 1.79 µM in experiment [5]; 3.26 µM in experiment [6]; 3.13 µM in experiment [7]. The TGI in [10] was 2.87 µM; in [8] it was above 10 µM; in experiment [9] it was 8.1 µM.
